From the supplement of paper PMC10307832

How the values were obtained:
Assay in all cases: relative viability (nuclei count vs DMSO), 5 days (fraction); higher = more cells survive
Olaparib + OSI-027 = compound: O=C(c1cc(Cc2n[nH]c(=O)c3ccccc23)ccc1F)N1CCN(C(=O)C2CC2)CC1 [Olaparib] + COc1cccc2cc(-c3nc([C@H]4CC[C@H](C(=O)O)CC4)n4ncnc(N)c34)[nH]c12 [OSI-027] (partner 0.5 µM)
Summary of the method: (§1)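 Relative viability was taken as the ratio of nuclei in treated wells to nuclei in vehicle wells. Lung cancer cell lines in 1536-well plates received compounds by pin tool one day after seeding, either one drug alone or a fixed anchor-drug dose plus five library-drug doses (not always all listed) in √10 steps. Nuclei were counted on 4× images after 5 days of treatment, and values are medians of duplicate plates.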

Olaparib + Phenformin = compound: O=C(c1cc(Cc2n[nH]c(=O)c3ccccc23)ccc1F)N1CCN(C(=O)C2CC2)CC1 [Olaparib] + N=C(N)NC(=N)NCCc1ccccc1 [Phenformin] (partner 250 µM)
Summary of the method: as §1

Carfilzomib + Vorinostat = compound: CC(C)C[C@H](NC(=O)[C@H](CCc1ccccc1)NC(=O)CN1CCOCC1)C(=O)N[C@@H](Cc1ccccc1)C(=O)N[C@@H](CC(C)C)C(=O)[C@@]1(C)CO1 [Carfilzomib] + O=C(CCCCCCC(=O)Nc1ccccc1)NO [Vorinostat] (partner 1 µM)
Summary of the method: as §1

Carfilzomib + Dasatinib = compound: CC(C)C[C@H](NC(=O)[C@H](CCc1ccccc1)NC(=O)CN1CCOCC1)C(=O)N[C@@H](Cc1ccccc1)C(=O)N[C@@H](CC(C)C)C(=O)[C@@]1(C)CO1 [Carfilzomib] + Cc1nc(Nc2ncc(C(=O)Nc3c(C)cccc3Cl)s2)cc(N2CCN(CCO)CC2)n1 [Dasatinib] (partner 0.075 µM)
Summary of the method: as §1

Cell Line NCI-H1793 has a relative viability (Olaparib + OSI-027; first compound 0.08 µM) of 0.279, a relative viability (Olaparib + OSI-027; first compound 0.253 µM) of 0.295 and a relative viability (Olaparib + OSI-027; first compound 2.53 µM) of 0.29. It also gave a relative viability (Olaparib + OSI-027; first compound 8 µM) of 0.243, a relative viability (Olaparib + Phenformin; first compound 0.08 µM) of 0.341 and a relative viability (Olaparib + Phenformin; first compound 0.253 µM) of 0.348. For the same cell line, the relative viability (Olaparib + Phenformin; first compound 2.53 µM) was 0.305, the relative viability (Olaparib + Phenformin; first compound 8 µM) was 0.287 and the relative viability (Carfilzomib + Vorinostat; first compound 0.001 µM) was 0.605. It also gave a relative viability (Carfilzomib + Vorinostat; first compound 0.003162 µM) of 1, a relative viability (Carfilzomib + Vorinostat; first compound 0.01 µM) of 0.7 and a relative viability (Carfilzomib + Vorinostat; first compound 0.03162 µM) of 0.396. For the same cell line, the relative viability (Carfilzomib + Vorinostat; first compound 0.1 µM) was 0.107, the relative viability (Carfilzomib + Dasatinib; first compound 0.003162 µM) was 0.507 and the relative viability (Carfilzomib + Dasatinib; first compound 0.01 µM) was 0.353. For the same cell line, the relative viability (Carfilzomib + Dasatinib; first compound 0.03162 µM) was 0.376 and the relative viability (Carfilzomib + Dasatinib; first compound 0.1 µM) was 0.389.
